Reference: ChEMBL document CHEMBL3044642, “Antimycobacterial activity of fractions and isolated compounds from Vetiveria zizanioides” (2012)
≈ marks a conversion by molar mass, not a printed value.

Columns and labels:
Format in all cases: functional
[1] = system: Mycolicibacterium smegmatis; experiment: Antimycobacterial activity against lomofloxacin-resistant Mycobacterium smegmatis Lom R5 after 24 hr by two-fold serial micro broth dilution method; settings: Lom R5, 24 h
[2] = system: Mycolicibacterium smegmatis; experiment: Antimycobacterial activity against ciprofloxacin,lomofloxacin and norflaxacin-resistant Mycobacterium smegmatis CSC-101 after 24 hr by two-fold serial micro broth dilution method; settings: CSC-101, 24 h
[3] = system: Mycolicibacterium smegmatis; experiment: Antimycobacterial activity against Mycobacterium smegmatis str. MC2 155 after 24 hr by two-fold serial micro broth dilution method; settings: str. MC2 155, 24 h
[4] = system: Mycolicibacterium smegmatis; experiment: Antimycobacterial activity against rifampicin,amphiciline and kanamycin-resistant Mycobacterium smegmatis MDR-40 after 24 hr by two-fold serial micro broth dilution method; settings: MDR-40, 24 h
[5] = system: Mycolicibacterium smegmatis; experiment: Antimycobacterial activity against rifampicin,tetracycline and chloramphenicol-resistant Mycobacterium smegmatis MDR-R after 24 hr by two-fold serial micro broth dilution method
[6] = system: Mycolicibacterium smegmatis; experiment: Antimycobacterial activity against quinolones and ciprofloxacin-resistant Mycobacterium smegmatis MDRQ after 24 hr by two-fold serial micro broth dilution method

SMILES | MIC [1] [µg/mL] | MIC [2] [µg/mL] | MIC [3] [µg/mL] | MIC [4] [µg/mL] | MIC [5] [µg/mL] | MIC [6] [µg/mL]
O=C(O)c1cn(C2CC2)c2cc(N3CCNCC3)c(F)cc2c1=O [CIPROFLOXACIN] | 25 (≈ 75.4 µM) | 3.12 (≈ 9.43 µM) | 0.78 (≈ 2.35 µM) | > 25 | 3.12 (≈ 9.43 µM) | 25 (≈ 75.4 µM)
CCCCC#CCCCC#CCCCCO | > 250 | 62.5 (≈ 284 µM) | 125 (≈ 567 µM) | 31.2 (≈ 142 µM) | 31.2 (≈ 142 µM) | 250 (≈ 1130 µM)
CCn1cc(C(=O)O)c(=O)c2cc(F)c(N3CCNC(C)C3)c(F)c21 (stereo not given) [LOMEFLOXACIN] | > 50 | < 1 | 0.78 (≈ 2.22 µM) | 2.5 (≈ 7.12 µM) | 10 (≈ 28.5 µM) | > 50
CCn1cc(C(=O)O)c(=O)c2ccc(C)nc21 [NALIDIXIC ACID] | 25 (≈ 108 µM) | 6.25 (≈ 26.9 µM) | 0.78 (≈ 3.36 µM) | 50 (≈ 215 µM) | 50 (≈ 215 µM) | 50 (≈ 215 µM)
CC1(C)CCC[C@@]2(C)C(CO)[C@H]3CC[C@H]2C3C1 (stereo not given in full) [HYDROXY JUNEPENE] | > 250 | 125 (≈ 529 µM) | 62.5 (≈ 264 µM) | 31.2 (≈ 132 µM) | 62.5 (≈ 264 µM) | > 250
